The subject of assay [1] is mice. The assay is described as follows: Acetic acid writhing syndrome test for analgesic activity. Particulars: for ED50: Mus musculus, sc. In kind it is in vivo, mouse. The protocol:
J. Pharmacol., 22, 2246 (1964).
Groups of 5 to 10 mice are administered one or more doses of the test compound by the desired route (but not intraperitoneally). At a selected time the mice are administered acetic acid, 0.4 ml (0.25% v/v solution) i.p. Five minutes later, the mice are observed for a period of 15 minutes to determine the appearance of squirming (abdominal writhing), and the number of squirms for each mouse is determined.
For ED50 determination, four or more doses of compound are tested in groups of 10 mice. The following ED50 's for analgesic activity were observed and determined.
For orientation: An intraperitoneal irritant provokes the stretching counted in writhing tests.

The subject of assay [2] is morphine-induced Straub tail. The assay is described as follows: Antagonism of morphine-induced Straub tail (muscle relaxant activity). Format: in vivo. Particulars: Mus musculus, ip; mice, i.p., 15 min before morphine sulfate s.c. The protocol: The characteristic elevation of the mouse tail (Straub tail) following morphine administration is due to a sustained, centrally mediated reflex contraction of the sacrococcygeus dorsalis muscle. Five to ten mice are used in each test, weight (18 to 30 grams) and placed in a Plexiglass observation chamber 2 to 3 minutes prior to injection. Animals are treated with the test compound at log doses, ca. 10 ml/kg, based upon the ED50 obtained from the Rotorod test (reduction of motor ability). Fifteen minutes later the desired dose of morphine sulfate, ca. 10 ml/kg, is injected subcutaneously and the mice observed for a period of 30 minutes following morphine administration for the presence or absence of Straub tail (defined as elevation of tail at 90° C. or more).

Assay [3] concerns mice. The assay is described as follows: Reduction of motor ability, rotorod. The note with it: Mus musculus, ip, 50% decrease in mean time on the rotorod. In kind it is in vivo. The protocol: Following a method of Kinnard and Carr, J. Pharmacol. Exp. Therap., 121, 354 (1957), groups of 10 mice are preselected for their ability to remain upon a horizontal rotating (15 rpm) rod (rotorod) for 120 seconds. The mice are dosed with the test compound and tested at various times. The percent change in mean time upon the rotorod from the pre-drug control time of 120 seconds is calculated for each dose group. […] The ED50 is defined as the dose of compound producing a 50% decrease in mean time on the rotorod.
Background: Falling from the rotarod earlier than controls is read as motor impairment.

In assay [4] the test system is Spontaneously hypertensive rats. As to the kind of experiment: Systolic arterial blood pressure in spontaneously hypertensive rats (antihypertensive activity). Format: in vivo, rat. The note with it: for Change In Systolic Blood Pressure From Control Post Treatment: * p < 0.05. The protocol:
Spontaneously hypertensive rates (males 250-300 g), obtained from the Charles River Breeding Laboratories, are divided into different treatment groups of 12 rats each. On separate days, one group of 12 rats is given 3, 10 or 30 mg/kg of the test compound, trans-3,4,4a,5,6,11b-hexahydro-10-fluoro-2H-[1]benzoxepino[5,4-b]-1,4-oxazine hydrochloride, by gavage and another group of 12 rats is given water (vehicle, 5 ml/kg).
Systolic arterial blood pressure is recorded from the tail of each rat using an occluding cuff and transducer. Systolic arterial blood pressure is recorded prior and subsequent to the administration of drug or vehicle at 1, 2, 3 and 4 hours post treatment.

[5] abbreviates: 0.5 h, oral, pretreatment time 30 minutes.
The mark [6] stands for this setting: 0.5 h, subcutaneous, pretreatment time 30 minutes.
Where [7] appears, read: 1 h, subcutaneous, pretreatment time 60 minutes.
Where [8] appears, read: 2 h, subcutaneous, pretreatment time 120 minutes.

The term ED50 denotes the midpoint of the dose-response relation. For `CCN1CCO[C@@H]2c3ccccc3OCC[C@H]21` (relative stereo) [Trans-4-Ethyl-3,4,4a,5,6,11b-hexahydro-2H-[1]benzoxepino[5,4-b]-1,4-oxazine], the ED50 in assay [1] (setting [5]) is 6.8 mg/kg; in assay [1] (setting [6]), 1.5 mg/kg; in assay [1] (setting [7]), 8.8 mg/kg; in assay [1] (setting [8]), over 128 mg/kg.

Take `Cl.c1ccc2c(c1)OCC[C@H]1NCCO[C@H]21` (relative stereo) [Trans-3,4,4a,5,6,11b-Hexahydro-2H-[1]benzoxepino-[5,4-b]-1,4-oxazine Hydrochloride]: the results for the ED50 in assay [2] and in assay [3] were 1.03 mg/kg and 23.9 mg/kg, respectively.

Take `CN1CCO[C@@H]2c3ccccc3OCC[C@H]21.O=C(O)/C=C\C(=O)O` (relative stereo) [Trans-3,4,4a,5,6,11b-Hexahydro-4-methyl-2H-[1]benzoxepino[5,4-b]-1,4-oxazine Maleate]: the ED50 in assay [2] was found to be 2.89 mg/kg; in assay [3] it was 12.4 mg/kg; in assay [1] (setting [5]), 42.8 mg/kg; in assay [1] (setting [6]) it was 4.35 mg/kg; in assay [1] (1 h, oral, pretreatment time 60 minutes) it was 52.2 mg/kg; in assay [1] (setting [7]), 13.8 mg/kg. Moreover, the ED50 in assay [1] (setting [8]) came out at 26.6 mg/kg. The “analgesic effect in brackets beside the ED50” value in assay [1] (subcutaneous, pretreatment time 120 minutes, @ 256 mg/kg) is recorded as 50%.

Turning to `Cl.Fc1ccc2c(c1)[C@H]1OCCN[C@@H]1CCO2` (relative stereo) [trans-3,4,4a,5,6,11b-hexahydro-10-fluoro-2H-[1]benzoxepino[5,4-b]-1,4-oxazine hydrochloride], the “Change In Systolic Blood Pressure From Control Post Treatment” value is listed as -15 mm Hg in assay [4] (3 mg/kg by gavage, 1 Hour); -20 mm Hg in assay [4] (3 mg/kg by gavage, 2 Hours); -22 mm Hg in assay [4] (3 mg/kg by gavage, 3 Hours); -24 mm Hg in assay [4] (3 mg/kg by gavage, 4 Hours); -52 mm Hg in assay [4] (10 mg/kg by gavage, 1 Hour); -44 mm Hg in assay [4] (10 mg/kg by gavage, 2 Hours). In addition, the “Change In Systolic Blood Pressure From Control Post Treatment” value in assay [4] (10 mg/kg by gavage, 3 Hours) was -42 mm Hg; in assay [4] (10 mg/kg by gavage, 4 Hours), -45 mm Hg; in assay [4] (30 mg/kg by gavage, 1 Hour), -84 mm Hg; in assay [4] (30 mg/kg by gavage, 2 Hours) it was -73 mm Hg; in assay [4] (30 mg/kg by gavage, 3 Hours), -73 mm Hg; in assay [4] (30 mg/kg by gavage, 4 Hours), -72 mm Hg. Moreover, the “effect on systolic arterial blood pressure, in words” value in assay [4] (3, 10, 30 mg/kg by gavage) was “dose related decrease in systolic arterial blood pressure that is statistically significant”. Also, the “duration of the anti-hypertensive effect” value in assay [4] (at the three doses tested (3, 10, 30 mg/kg, gavage)) was “at least 4 hours”.

These data come from patent publication US4766212A, “2H-[1]benzoxepino[5,4-b]-1,4-oxazine derivatives” (Merrell Dow Pharmaceuticals Inc., priority 1987, dated 1988).
